# Results: patent US11427615B2, “Peptide compound and application thereof, and composition containing peptide compound” (XDCEXPLORER (SHANGHAI) CO., LTD., priority 2017, dated 2022)
# pEC50: −log10 of the molar value. Starred links: 1 amine or outer side, 2 acyl side, 3 side chain; linkers in the order of their positions; H or OH if unused. Non-standard residues stand in square brackets, D forms with d. Residues, ends and D or L forms follow the SMILES beside them. *: point of attachment. cPrCO(1-aminomethyl) = O=C(C1(CN[*:1])CC1)[*:2]; dPhe(2,4-Cl2) = N[C@H](Cc1ccc(Cl)cc1Cl)C(=O)O; Phe(4-Cl) = N[C@@H](Cc1ccc(Cl)cc1)C(=O)O; Pro(4,4-F2) = O=C(O)[C@@H]1CC(F)(F)CN1; dAla(2-furyl) = N[C@H](Cc1ccco1)C(=O)O; dPhe(4-F) = N[C@H](Cc1ccc(F)cc1)C(=O)O; Arg(Me) = CNC(=N)NCCC[C@H](N)C(=O)O; Hyp = O=C(O)[C@@H]1C[C@@H](O)CN1; 2Thi = N[C@@H](Cc1cccs1)C(=O)O; NMeL = CN[C@@H](CC(C)C)C(=O)O; Nonanoyl = CCCCCCCCC(=O)*; Pip = O=C(O)[C@@H]1CCCCN1; Ac6c = NC1(C(=O)O)CCCCC1; Aze = O=C(O)[C@@H]1CCN1; AEEA = NCCOCCOCC(=O)O; azaGly = NNC(=O)O; βAla = NCCC(=O)O
# Biological target: T1, human kiss1 receptor (GPR54) (Homo sapiens, UniProt Q969F8)
# T1 construct: host or cells: NFAT-bla CHO-K1 cells (Chinese hamster ovary), purchased recombinant cell line
# Test: Kiss1 receptor (GPR54) binding activity of agonists, FRET detection in NFAT-bla CHO-K1 cells
# Type: cell-based
# Details: GPR54; measured according to the method of effect Embodiment 1; preliminary data; read-out: Preliminary measurement data (GPR54) EC50
# T1 sequence (Q969F8 whole entry): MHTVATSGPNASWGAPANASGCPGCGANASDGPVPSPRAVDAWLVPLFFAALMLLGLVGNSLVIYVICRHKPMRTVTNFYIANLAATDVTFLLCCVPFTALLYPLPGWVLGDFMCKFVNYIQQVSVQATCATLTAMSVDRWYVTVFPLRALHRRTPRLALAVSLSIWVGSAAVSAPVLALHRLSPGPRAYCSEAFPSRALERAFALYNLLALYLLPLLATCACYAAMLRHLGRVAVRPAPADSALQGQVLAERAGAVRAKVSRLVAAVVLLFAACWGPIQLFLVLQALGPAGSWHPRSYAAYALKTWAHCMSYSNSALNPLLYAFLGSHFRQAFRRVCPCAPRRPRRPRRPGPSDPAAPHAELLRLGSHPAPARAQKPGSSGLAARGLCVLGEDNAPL
row,pEC50,SMILES
1,10.82,"CNC(=N)NCCC[C@H](NC(=O)[C@H](CC(C)C)NC(=O)NNC(=O)[C@H](Cc1ccccc1)NC(=O)[C@@H](NC(=O)[C@H](CC(N)=O)NC(=O)[C@@H]1C[C@@H](O)CN1C(=O)[C@@H](Cc1ccc(Cl)cc1Cl)NC(C)=O)[C@@H](C)O)C(=O)N[C@@H](Cc1c[nH]c2ccccc12)C(N)=O [YA-42, Ac-[D-Phe(2,4-DiCl)]-Hyp-Asn-Thr-Phe-azaGly-Leu-Arg(Me)-Trp-NH2] (Ac-[dPhe(2,4-Cl2)][Hyp]NTF[azaGly]L[Arg(Me)]W-NH2)"
2,8.10,"CNC(=N)NCCC[C@H](NC(=O)[C@H](CC(C)C)NC(=O)[C@@H]1CCCCN1C(=O)[C@H](Cc1ccccc1)NC(=O)[C@@H](NC(=O)[C@H](CC(N)=O)NC(=O)[C@@H]1C[C@@H](O)CN1C(=O)[C@@H](Cc1ccc(O)cc1)NC(C)=O)[C@@H](C)O)C(=O)N[C@@H](Cc1c[nH]c2ccccc12)C(N)=O [YA-226, Ac-(D-Tyr)-Hyp-Asn-Thr-Phe-(S-Pip)-Leu-Arg(Me)-Trp-NH2] (Ac-[dY][Hyp]NTF[Pip]L[Arg(Me)]W-NH2)"
3,10.60,"CNC(=N)NCCC[C@H](NC(=O)[C@H](CC(C)C)NC(=O)NNC(=O)[C@H](Cc1ccccc1)NC(=O)[C@@H](NC(=O)[C@H](CC(N)=O)NC(=O)[C@@H](Cc1ccco1)NC(=O)[C@@H](Cc1ccc(O)cc1)NC(C)=O)[C@@H](C)O)C(=O)N[C@@H](Cc1c[nH]c2ccccc12)C(N)=O [YA-165, Ac-D-Tyr-(D-2Fua)-Asn-Thr-Phe-azaGly-Leu-Arg(Me)-Trp-NH2] (Ac-[dY][dAla(2-furyl)]NTF[azaGly]L[Arg(Me)]W-NH2)"
4,10.57,"CNC(=N)NCCC[C@H](NC(=O)[C@H](CC(C)C)NC(=O)NNC(=O)[C@H](Cc1ccccc1)NC(=O)[C@@H](NC(=O)[C@H](CC(N)=O)NC(=O)C1(NC(=O)[C@@H](Cc2ccc(Cl)cc2Cl)NC(C)=O)CCCCC1)[C@@H](C)O)C(=O)N[C@@H](Cc1c[nH]c2ccccc12)C(N)=O [YA-260, Ac-[D-Phe(2,4-DiCl)]-A6c-Asn-Thr-Phe-azaGly-Leu-Arg(Me)-Trp-NH2] (Ac-[dPhe(2,4-Cl2)][Ac6c]NTF[azaGly]L[Arg(Me)]W-NH2)"
5,8.76,"CNC(=N)NCCC[C@H](NC(=O)[C@H](CC(C)C)N(C)C(=O)CCNC(=O)[C@H](Cc1ccccc1)NC(=O)[C@@H](NC(=O)[C@H](CC(N)=O)NC(=O)[C@@H]1C[C@@H](O)CN1C(=O)[C@@H](Cc1ccco1)NC(C)=O)[C@@H](C)O)C(=O)N[C@@H](Cc1c[nH]c2ccccc12)C(N)=O [YA-164, Ac-[3-(2-furyl)-D-Ala]-Hyp-Asn-Thr-Phe-BetaAla-(NMe-Leu)-Arg(Me)-Trp-NH2] (Ac-[dAla(2-furyl)][Hyp]NTF[βAla][NMeL][Arg(Me)]W-NH2)"
6,11.00,"CNC(=N)NCCC[C@H](NC(=O)C(CC(C)C)C(=O)NCNC(=O)[C@H](Cc1ccccc1)NC(=O)[C@@H](NC(=O)[C@H](CC(N)=O)NC(=O)[C@@H]1C[C@@H](O)CN1C(=O)[C@@H](Cc1ccc(O)cc1)NC(C)=O)[C@@H](C)O)C(=O)N[C@@H](Cc1c[nH]c2ccccc12)C(N)=O (single isomer, unassigned) [YA-303, Ac-(D-Tyr)-Hyp-Asn-Thr-Phe-ψ(NHCO)Gly-Leu-Arg(Me)-Trp-NH2]"
7,10.70,"CCCCCCCCC(=O)NCCOCCOCC(=O)N[C@H](Cc1ccc(O)cc1)C(=O)N1C[C@H](O)C[C@H]1C(=O)N[C@@H](CC(N)=O)C(=O)N[C@H](C(=O)N[C@@H](Cc1ccccc1)C(=O)NNC(=O)N[C@@H](CC(C)C)C(=O)N[C@@H](CCCNC(=N)NC)C(=O)N[C@@H](Cc1c[nH]c2ccccc12)C(N)=O)[C@@H](C)O [YA-295, Nonanoyl-OEG-D-Tyr-Hyp-Asn-Thr-Phe-azaGly-Leu-Arg(Me)-Trp-NH2] ({Nonanoyl-AEEA}-[dY][Hyp]NTF[azaGly]L[Arg(Me)]W-NH2)"
8,8.26,"CNC(=N)NCCC[C@H](NC(=O)[C@H](CC(C)C)NC(=O)NNC(=O)[C@H](Cc1ccccc1)NC(=O)[C@@H](NC(=O)[C@H](CC(N)=O)NC(=O)[C@@H]1C[C@@H](O)CN1C(=O)[C@H](Cc1ccc(Cl)cc1)NC(C)=O)[C@@H](C)O)C(=O)N[C@@H](Cc1c[nH]c2ccccc12)C(N)=O [YA-72, Ac-Phe(4-Cl)-Hyp-Asn-Thr-Phe-azaGly-Leu-Arg(Me)-Trp-NH2] (Ac-[Phe(4-Cl)][Hyp]NTF[azaGly]L[Arg(Me)]W-NH2)"
9,7.05,"CNC(=N)NCCC[C@H](NC(=O)[C@H](CC(C)C)NC(=O)C1(NC(=O)[C@H](Cc2ccccc2)NC(=O)[C@@H](NC(=O)[C@H](CC(N)=O)NC(=O)[C@H](Cc2c[nH]c3ccccc23)NC(=O)[C@H](Cc2cccs2)NC(=O)[C@@H](Cc2ccc(Cl)cc2Cl)NC(C)=O)[C@@H](C)O)CCCCC1)C(=O)N[C@@H](Cc1c[nH]c2ccccc12)C(N)=O [YA-207, Ac-[D-Phe(2,4-DiCl)]-Thi-Trp-Asn-Thr-Phe-A6c-Leu-Arg(Me)-Trp-NH2] (Ac-[dPhe(2,4-Cl2)][2Thi]WNTF[Ac6c]L[Arg(Me)]W-NH2)"
10,9.30,"CNC(=N)NCCC[C@H](NC(=O)[C@H](CC(C)C)NC(=O)C1(NC(=O)[C@H](Cc2ccccc2)NC(=O)[C@@H](NC(=O)[C@H](CC(N)=O)NC(=O)[C@@H]2CC(F)(F)CN2C(=O)[C@@H](Cc2ccc(F)cc2)NC(C)=O)[C@@H](C)O)CCCCC1)C(=O)N[C@@H](Cc1c[nH]c2ccccc12)C(N)=O [YA-212, Ac-[D-Phe(4-F)]-Pro(diF)-Asn-Thr-Phe-A6c-Leu-Arg(Me)-Trp-NH2] (Ac-[dPhe(4-F)][Pro(4,4-F2)]NTF[Ac6c]L[Arg(Me)]W-NH2)"
11,9.28,"CNC(=N)NCCC[C@H](NC(=O)[C@H](CC(C)C)NC(=O)[C@@H]1CCN1C(=O)[C@H](Cc1ccccc1)NC(=O)[C@@H](NC(=O)[C@H](CC(N)=O)NC(=O)[C@H](Cc1cccs1)NC(=O)[C@@H](Cc1ccc(O)cc1)NC(C)=O)[C@@H](C)O)C(=O)N[C@@H](Cc1c[nH]c2ccccc12)C(N)=O [YA-191, Ac-D-Tyr-Thi-Asn-Thr-Phe-Aze-Leu-Arg(Me)-Trp-NH2] (Ac-[dY][2Thi]NTF[Aze]L[Arg(Me)]W-NH2)"
12,8.83,"CNC(=N)NCCC[C@H](NC(=O)[C@H](CC(C)C)NC(=O)C1(NC(=O)[C@H](Cc2ccccc2)NC(=O)[C@@H](NC(=O)[C@H](CC(N)=O)NC(=O)[C@@H]2CCCCN2C(=O)[C@@H](Cc2ccc(F)cc2)NC(C)=O)[C@@H](C)O)CCCCC1)C(=O)N[C@@H](Cc1c[nH]c2ccccc12)C(N)=O [YA-210, Ac-[D-Phe(4-F)]-(S-Pip)-Asn-Thr-Phe-A6c-Leu-Arg(Me)-Trp-NH2] (Ac-[dPhe(4-F)][Pip]NTF[Ac6c]L[Arg(Me)]W-NH2)"

# Same assay, conditions: NFAT-bla CHO-K1 cells that express human kiss1 receptor (GPR54); FRET; cells cultured with compound for 4 hours; read-out: GPR54 EC50/nM
row,EC50,SMILES
1,0.69 nM,"CNC(=N)NCCC[C@H](NC(=O)[C@H](CC(C)C)NC(=O)C1(NC(=O)[C@H](Cc2ccccc2)NC(=O)[C@@H](NC(=O)[C@H](CC(N)=O)NC(=O)C2(NC(=O)[C@@H](Cc3ccc(O)cc3)NC(C)=O)CCCCC2)[C@@H](C)O)CCCCC1)C(=O)N[C@@H](Cc1c[nH]c2ccccc12)C(N)=O [YA-243, Ac-D-Tyr-A6c-Asn-Thr-Phe-A6c-Leu-Arg(Me)-Trp-NH2] (Ac-[dY][Ac6c]NTF[Ac6c]L[Arg(Me)]W-NH2)"

# Same assay, conditions: human kiss1 receptor (GPR54), NFAT-bla CHO-K1 cells, FRET; preliminary data; method of effect Embodiment 1; read-out: Preliminary measurement data (GPR54) EC50
row,pEC50,SMILES
1,7.37,"CNC(=N)NCCC[C@H](NC(=O)[C@H](CC(C)C)NC(=O)C1(CNC(=O)[C@H](Cc2ccccc2)NC(=O)[C@@H](NC(=O)[C@H](CC(N)=O)NC(=O)[C@@H]2C[C@@H](O)CN2C(=O)[C@@H](Cc2ccc(O)cc2)NC(C)=O)[C@@H](C)O)CC1)C(=O)N[C@@H](Cc1c[nH]c2ccccc12)C(N)=O [YA-289, Ac-(D-Tyr)-Hyp-Asn-Thr-Phe-ACPA-Leu-Arg(Me)-Trp-NH2] (Ac-[dY][Hyp]NTF[cPrCO(1-aminomethyl)]L[Arg(Me)]W-NH2)"
